In patent US10265286B2, “Sequelae of cardiopulmonary bypass-induced pulmonary injury” (Vanderbilt University, priority 2016, dated 2019):
Like-named read-outs stand apart in the source and are kept apart here.

Key:
[1] = Phase IB study: length of time on inotropes and inotrope score; assay type: in vivo, human
Excerpt: The inotrope dose should be monitored post operatively from the time of PCCU admission using the following scoring system:
• =total inotrope score See, e.g., Hoffman, et al. Circulation (2003) 107: 996-1002. A decrease in the inotrope score would be a positive postoperative outcome.
In FIG. 21, data are defined as the time between the start and end times of inotrope use. All missing or 0 total inotrope scores prior to the first measured score are set to 0 and are therefore not considered as being on inotropes. The total inotrope score is considered, which is calculated on the basis of Dopamine, Dobutamine, Milrinone, Epinephrine, Phenylephrine, and Norepinephrine. The length of time on inotropes of patients with no use of inotropes is set to 0 hours (not censored).
The length of time on IV inotropes was documented from the time of first use after surgery until completion of the study medication at 48 hours, i.e. the duration of inotrope use was maximally 48 hours in the current analysis. Patients still receiving inotropes at hour 48 after surgery were censored. The average duration of intravenous (IV) inotrope use was clearly lower in the citrulline group than in the placebo group (Table 12). However, statistical significance for the between-treatment difference was not reached.

[2] = Phase IB study: composite of invasive mechanical ventilation or inotrope use; assay type: in vivo, human
Excerpt: The cessation of positive pressure ventilation and of inotrope therapy are the two principal determinants of readiness for discharge from the intensive care unit. They were combined as a composite variable to serve as an additional effective surrogate endpoint for the duration of ICU stay.
The composite endpoint comprised the longer of the duration of positive pressure ventilatory support or of inotrope therapy. Since inotrope use was only documented until Hour 48 after surgery (end of study medication treatment), patients with inotrope use continuing until Hour 48 and with mechanical ventilation duration of ≤48 h were censored at this time point. If mechanical ventilation was continued beyond the 48-hour time point, the duration of mechanical ventilation was used in the analysis.

[3] = Intravenous citrulline dose escalation pharmacokinetics in children undergoing congenital cardiac surgery; assay type: in vivo, human
Method: The initial goal was to test the safety and pharmacokinetics of three doses of intravenous citrulline in children undergoing surgical repair of specific congenital heart defects. […] An adverse drop in mean arterial pressure was defined as a greater than a twenty percent decrease from baseline. The baseline postoperative mean arterial blood pressure was calculated as the average of mean arterial blood pressure measurements collected every 5 minutes for the 30 minutes immediately preceding the administration of the postoperative dose or infusion.
The original doses selected were 200, 400, and 600 mg/kg based on data from previous animal studies. The original study design was a 4 arm study using the 3 doses and a placebo control.
After pharmacokinetic modeling, the study design was changed to a bolus dose of 150 mg/kg given in the OR on cardiopulmonary bypass followed 4 hours later by a continuous infusion of 9 mg/kg/hour for 48 hours. Another 9 patients were enrolled. The mean plasma levels of both citrulline and arginine in study patients (+IV citrulline) compared to patients in the observational cohort (−IV citrulline) are depicted in FIGS. 11A-B.
The dose of citrulline was given in the operating room immediately after cannulation and initiation of cardiopulmonary bypass. The overall goal was to achieve a sustained citrulline level of 100 μmol/L or more up to four hours after the initial dose. The four hour time point was selected to allow for the surgical procedure to be completed and the patient to return to the Intensive Care Unit (ICU) postoperatively before further dosing.

[4] = Phase IB study: duration of hospitalization; assay type: in vivo, human; conditions: postoperative until discharge
Method: Duration of hospitalization was calculated as the total number of days postoperative until discharge from the hospital. The average duration of hospitalization was lower in the citrulline than the placebo treatment group, however, the difference was not statistically significant (Table 17).

[5] = Phase IB study: postoperative invasive mechanical ventilation; assay type: in vivo, human; conditions: end of surgery until last extubation, FIG. 20
[6] = test system: human vascular endothelial cells; assay: Nitric oxide production by cultured human vascular endothelial cells (FIG. 23); assay type: cell-based; conditions: cells stimulated with acetylcholine; nitrate/nitrites by Seiver's system
Method: These agents were administered to cultured human vascular endothelial cells stimulated with acetylcholine. Measurement of nitric oxide was through a Seiver's system of nitrate/nitrites.

[7] = Phase IB study: plasma citrulline concentrations (Example 10A); assay type: in vivo, human; conditions: for Number of samples with Citrulline >100 μmol/L / Number of samples with Citrulline ≤100 μmol/L: all samples except baseline
Method: Twenty two (22) patients were enrolled and treated. Patients received an IV citrulline bolus of 150 mg/kg or placebo at the initiation of CPB, followed by the addition of L-citrulline at a concentration of 200 μmol/L or placebo to the filtration or hemoconcentration replacement fluid used during CPB. A citrulline bolus of 20 mg/kg was administered 30 minutes after decannulation from CPB, immediately followed by a 9-mg/kg/hr continuous infusion of citrulline or placebo for 48 hours. Study participation ended at discharge or at Day 28 whichever came first.
Plasma citrulline concentration levels were the primary PK variable; these were assessed in blood samples collected at 7 perioperative time points. Secondary PK variables were concentrations of arginine and nitric oxide (NO) metabolites in the same sample set. PK values were compared between groups.
The citrulline concentration levels during and after the CPB procedure was the PK parameter of interest in this study. The target level in patients treated with intravenous citrulline was a plasma citrulline level of >100 μmol/L during the immediate follow-up period after CPB. Plasma blood collection was performed at 7 perioperative time points: at baseline before surgery, during CPB (post-bolus 1), and after surgery/CPB at the time points 0 hours (pre bolus 2), 6 hours, 12 hours, 24 hours, and 48 hours.

[8] = all i.v. inotropes postoperatively
[9] = revised IV protocol, Post Bolus 1
[10] = revised IV protocol, Pre Bolus 2

NC(=O)NCCCC(N)C(=O)O (centres unmarked) [Citrulline, 2-amino-5-(carbamoylamino)pentanoic acid]
Total inotrope score, Diff (CI) placebo vs citrulline [1, 8]: 559.8 (−193.5, 1313.2)
Total inotrope score, Median [1, 8]: 650.0
Total inotrope score, Range [1, 8]: 0.0-2351.0
Total inotrope score, Mean ± SD ([1]; all i.v. inotropes postoperatively, N = 11): 602.7 ± 727.86
Length of time on i.v. inotropes, Diff (CI) placebo vs citrulline ([1]; maximally 48 hours): 12.7 (−2.6, 28.1) hours
Length of time on i.v. inotropes, Median ([1]; maximally 48 hours): 16.0 h
Length of time on i.v. inotropes, Range ([1]; maximally 48 hours): 0.0 to 47.0 h
Length of time on i.v. inotropes, Mean ± SD ([1]; maximally 48 hours, N = 11): 13.4 ± 14.78 h
Composite duration of invasive mechanical ventilation or inotrope use, Diff (CI) placebo vs citrulline ([2]; Re-intubation time excluded): 17.7 (−1.0, 36.4) hours
Composite duration of invasive mechanical ventilation or inotrope use, Mean ± SD ([2]; Re-intubation time excluded): 14.3 ± 14.06 h
Composite duration of invasive mechanical ventilation or inotrope use, Median ([2]; Re-intubation time excluded): 15.0 h
Composite duration of invasive mechanical ventilation or inotrope use, Range ([2]; Re-intubation time excluded): 0.0 to 47.0 h
Composite duration of invasive mechanical ventilation or inotrope use, Diff (CI) placebo vs citrulline ([2]; Re-intubation time included): 30.2 (−10.8, 71.1) hours
Composite duration of invasive mechanical ventilation or inotrope use, Mean ± SD ([2]; Re-intubation time included): 14.3 ± 14.06 h
Composite duration of invasive mechanical ventilation or inotrope use, Median ([2]; Re-intubation time included): 15.0 h
Composite duration of invasive mechanical ventilation or inotrope use, Range ([2]; Re-intubation time included): 0.0 to 47.0 h
peak citrulline level ([3]; 50 mg/kg IV, Patients 6 and 8): approximately 220 μmol/L
peak citrulline level ([3]; 100 mg/kg IV, Patients 9 & 10): 375 µmol/L
four hour levels ([3]; 150 mg/kg IV bolus): 100 µmol/L
peak citrulline level ([3]; 150 mg/kg IV, Patient 13-16): 660 µmol/L
plasma levels achieved ([3]; IV doses 200, 400, and 600 mg/kg): very high
sustained citrulline level suggested by pharmacokinetic modeling ([3]; bolus 150 mg/kg then 4 hours later continuous infusion 9 mg/kg/hr): approximately 100 μmol/L
half-life ([3]; human, plasma, iv, IV bolus doses in children on CPB): ~1.42 h
concentration at 4 hour ([3]; human, plasma, 50 mg/kg IV, Patients 6 and 8, read-out: 4 hour trough level): 40 µM
concentration at 4 hour ([3]; human, plasma, 100 mg/kg IV, Patients 9 & 10, read-out: 4 hour trough): 50 µM
concentration at 4 hour ([3]; human, plasma, 150 mg/kg IV, Patient 13-16, read-out: 4 hour trough): 80 µM
Duration of hospitalization, Diff (CI) placebo vs citrulline [4]: 3.7 (−2.2, 9.7) days
Duration of hospitalization, Median [4]: 5.0 days
Duration of hospitalization, Range [4]: 3.0 to 7.0 days
Duration of hospitalization, Mean ± SD ([4]; N = 11): 4.6 ± 1.21 days
duration of mechanical ventilation versus placebo (Kaplan-Meier) [5]: reduced duration of mechanical ventilation
production of nitric oxide [6]: increases the production of NO
Number of samples with Citrulline >100 μmol/L ([7]; Site 01): 25
Number of samples with Citrulline ≤100 μmol/L ([7]; Site 01): 2
Number of samples with Citrulline >100 μmol/L ([7]; Site 02): 29
Number of samples with Citrulline ≤100 μmol/L ([7]; Site 02): 3
samples with plasma citrulline levels <100 μmol/L ([7]; of the total of 59 samples, excluding baseline samples): 5
Citrulline concentrations, Mean ± SD ([7]; revised IV protocol, N = 11, Baseline): 200.9 ± 569.89 µmol/L
Citrulline concentrations, Median ([7]; revised IV protocol, Baseline): 32.0 µmol/L
Citrulline concentrations, Mean ± SD ([7]; revised IV protocol, Hour 6): 167.8 ± 117.67 µmol/L
Citrulline concentrations, Median ([7]; revised IV protocol, Hour 6): 138.0 µmol/L
Citrulline concentrations, Mean ± SD ([7]; revised IV protocol, Hour 12): 127.1 ± 16.18 µmol/L
Citrulline concentrations, Median ([7]; revised IV protocol, Hour 12): 125.0 µmol/L
Citrulline concentrations, Mean ± SD ([7]; revised IV protocol, Hour 24): 125.3 ± 38.74 µmol/L
Citrulline concentrations, Median ([7]; revised IV protocol, Hour 24): 114.0 µmol/L
Citrulline concentrations, Mean ± SD [7, 9]: 2405.9 ± 1517.4 µmol/L
Citrulline concentrations, Median [7, 9]: 2577.0 µmol/L
Citrulline concentrations, Mean ± SD [7, 10]: 890.9 ± 1077.5 µmol/L
Citrulline concentrations, Median [7, 10]: 573.0 µmol/L
plasma citrulline levels achieved ([7]; revised IV protocol, target level 100 μmol/L): > 100 µmol/L
